Measured values: ChEMBL document CHEMBL1121683, “Novel synthesis of (S)-1-[5-(benzoylamino)-1,4-dioxo-6-phenylhexyl]-L-proline and analogues: potent angiotensin converting enzyme inhibitors” (J Med Chem, 1981)

Assays:
Rattus norvegicus [1] = assay: Time required after administration of 3 mg/kg of compound iv, for the AI response to return to 70% of the pretreatment control response; format: functional
Rattus norvegicus [2] = assay: Time required after administration of 30 mg/kg of compound po, for the AI response to return to 70% of the pretreatment control response; format: functional
Rattus norvegicus [3] = assay: Maximum effect of 30 mg/kg administered orally on mean aortic blood pressure in the conscious renal hypertensive rat; format: functional, Artery; conditions: route oral
Rattus norvegicus [4] = assay: Maximum inhibition of the angiotensin I challenge at 3 mg/kg, iv, in conscious, normotensive rats; format: functional
Rattus norvegicus [5] = assay: Maximum inhibition of the angiotensin I challenge at 30mg/kg, po in conscious, normotensive rats; format: functional
Rattus norvegicus [6] = assay: Change in mean aortic blood pressure in the conscious renal hypertensive rat after oral administration of 30 mg/kg; format: functional, Artery
Rattus norvegicus [7] = assay: Maximum inhibition of the angiotensin I challenge at 3 mg/kg, po, in conscious, normotensive rats; format: functional
Rattus norvegicus [8] = assay: Maximum inhibition of the angiotensin I challenge at 0.3 mg/kg, po, in conscious, normotensive rats; format: functional
Rattus norvegicus [9] = assay: Time required after administration of 0.3 mg/kg of compound po, for the AI response to return to 70% of the pretreatment control response; format: functional
Rattus norvegicus [10] = assay: Maximum inhibition of the angiotensin I challenge at 0.03 mg/kg, po, in conscious, normotensive rats; format: functional
Rattus norvegicus [11] = assay: Maximum effect of 3 mg/kg of compound administered orally on mean aortic blood pressure in the conscious renal hypertensive rat; format: functional, Artery; conditions: route oral
Rattus norvegicus [12] = assay: Maximum effect of 0.3 mg/kg of compound administered orally on mean aortic blood pressure in the conscious renal hypertensive rat; format: functional, Artery; conditions: route oral
Rattus norvegicus [13] = assay: Time required after administration of 3 mg/kg of compound po, for the AI response to return to 70% of the pretreatment control response; format: functional
Rattus norvegicus [14] = assay: Change in mean aortic blood pressure in the conscious renal hypertensive rat after oral administration of 3 mg/kg; format: functional, Artery
Rattus norvegicus [15] = assay: Time required after administration of 0.03 mg/kg of compound po, for the AI response to return to 70% of the pretreatment control response; format: functional
Rattus norvegicus [16] = assay: Change in mean aortic blood pressure in the conscious renal hypertensive rat after oral administration of 0.3 mg/kg; format: functional, Artery
[17] = biological target: Angiotensin-converting enzyme (Homo sapiens, UniProt P12821); assay: Concentration required to inhibit the activity of Angiotensin I converting enzyme by 50%; format: protein assay, Cavia porcellus
Chain of Angiotensin-converting enzyme (P12821 whole entry): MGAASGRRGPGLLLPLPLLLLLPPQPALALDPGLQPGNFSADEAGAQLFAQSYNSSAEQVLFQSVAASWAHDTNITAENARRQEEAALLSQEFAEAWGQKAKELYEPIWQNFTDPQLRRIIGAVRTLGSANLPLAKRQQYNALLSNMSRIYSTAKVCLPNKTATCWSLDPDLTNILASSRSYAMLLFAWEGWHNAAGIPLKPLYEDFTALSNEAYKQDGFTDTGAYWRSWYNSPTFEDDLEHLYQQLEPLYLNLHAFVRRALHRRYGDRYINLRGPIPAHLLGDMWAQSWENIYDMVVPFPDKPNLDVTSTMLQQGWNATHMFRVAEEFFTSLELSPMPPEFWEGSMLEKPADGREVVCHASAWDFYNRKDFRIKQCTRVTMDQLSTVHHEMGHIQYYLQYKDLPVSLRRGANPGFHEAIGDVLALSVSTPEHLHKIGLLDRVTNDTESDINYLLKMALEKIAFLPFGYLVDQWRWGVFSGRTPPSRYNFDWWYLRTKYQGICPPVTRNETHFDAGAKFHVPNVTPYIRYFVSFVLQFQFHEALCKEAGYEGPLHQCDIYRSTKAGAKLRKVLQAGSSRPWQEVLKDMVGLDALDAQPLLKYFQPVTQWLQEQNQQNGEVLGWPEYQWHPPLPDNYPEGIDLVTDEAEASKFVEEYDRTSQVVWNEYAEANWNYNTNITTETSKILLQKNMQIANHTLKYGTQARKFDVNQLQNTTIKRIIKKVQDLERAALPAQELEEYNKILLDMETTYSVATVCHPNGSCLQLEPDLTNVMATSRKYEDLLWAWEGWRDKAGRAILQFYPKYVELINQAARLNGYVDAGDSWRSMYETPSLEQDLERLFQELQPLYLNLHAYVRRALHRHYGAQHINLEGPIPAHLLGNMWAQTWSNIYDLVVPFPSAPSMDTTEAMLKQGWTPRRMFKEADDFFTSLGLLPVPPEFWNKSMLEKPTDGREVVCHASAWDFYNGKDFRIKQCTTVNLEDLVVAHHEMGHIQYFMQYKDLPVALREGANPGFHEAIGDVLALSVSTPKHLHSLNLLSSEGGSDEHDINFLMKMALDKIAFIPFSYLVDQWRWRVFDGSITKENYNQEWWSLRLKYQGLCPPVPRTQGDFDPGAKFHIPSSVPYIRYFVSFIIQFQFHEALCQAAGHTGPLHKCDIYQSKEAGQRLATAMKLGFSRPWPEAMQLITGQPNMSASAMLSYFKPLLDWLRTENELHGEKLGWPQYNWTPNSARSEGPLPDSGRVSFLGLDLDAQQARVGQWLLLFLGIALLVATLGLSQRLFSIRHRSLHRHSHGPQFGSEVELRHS

Question: For O=C(NC(Cc1ccccc1)C(=O)CCC(=O)N1CCC[C@H]1C(=O)O)c1ccco1 (some centres undefined), which AI recovery time (Rattus norvegicus [1]) is on record?
Answer: 52 min

Question: And the AI recovery time (Rattus norvegicus [2])?
Answer: 84 min

Question: What about the “Mean aortic blood pressure at maximum effect” value (“Mean aortic blood pressure” for short) (Rattus norvegicus [3]) of the same compound?
Answer: 184 mmHg

Question: What about the Max inhibition (Rattus norvegicus [4]) of the same compound?
Answer: 84%

Question: And the Max inhibition (Rattus norvegicus [5])?
Answer: 32%

Question: And the Change (Rattus norvegicus [6])?
Answer: -1 mmHg

Question: Which results are given for O=C(CCC(=O)C(Cc1ccccc1)NC(=O)c1ccccc1)NC(Cc1ccccc1)C(=O)OCc1ccccc1 (centres undefined)?
Answer: Mean aortic blood pressure at maximum effect (Rattus norvegicus [3]): 182 mmHg; Change (Rattus norvegicus [6]): -5 mmHg

Question: For CC(=O)NC(Cc1ccccc1)C(=O)CCC(=O)N1CCC[C@H]1C(=O)O (some centres undefined), which “Mean aortic blood pressure” value (Rattus norvegicus [3]) is on record?
Answer: 176 mmHg

Question: What about the Change (Rattus norvegicus [6]) of the same compound?
Answer: -26 mmHg

Question: With COc1ccc(CC(NC(=O)c2ccccc2)C(=O)CCC(=O)N2CCC[C@H]2C(=O)O)cc1OC (some centres undefined) as the compound, how does the AI recovery time (Rattus norvegicus [1]) read?
Answer: 24 min

Question: And the AI recovery time (Rattus norvegicus [2])?
Answer: 5 min

Question: What about the “Mean aortic blood pressure” value (Rattus norvegicus [3]) of the same compound?
Answer: 174 mmHg

Question: What about the Max inhibition (Rattus norvegicus [4]) of the same compound?
Answer: 74%

Question: What about the Max inhibition (Rattus norvegicus [5]) of the same compound?
Answer: 33%

Question: What about the Change (Rattus norvegicus [6]) of the same compound?
Answer: -5 mmHg

Question: C[C@H](CS)C(=O)N1CCC[C@H]1C(=O)O [CAPTOPRIL] was tested. Which Max inhibition (Rattus norvegicus [7]) did it give?
Answer: 95%

Question: What about the Max inhibition (Rattus norvegicus [8]) of the same compound?
Answer: 69%

Question: What about the AI recovery time (Rattus norvegicus [9]) of the same compound?
Answer: 170 min

Question: What about the “Mean aortic blood pressure” value (Rattus norvegicus [3]) of the same compound?
Answer: 85 mmHg

Question: And the Max inhibition (Rattus norvegicus [10])?
Answer: 16%

Question: And the Max effect (Rattus norvegicus [11])?
Answer: 99 mmHg

Question: What about the Max effect (Rattus norvegicus [12]) of the same compound?
Answer: 170 mmHg

Question: And the AI recovery time (Rattus norvegicus [13])?
Answer: >240 min

Question: What about the Change (Rattus norvegicus [14]) of the same compound?
Answer: -93 mmHg

Question: What about the Change (Rattus norvegicus [6]) of the same compound?
Answer: -101 mmHg

Question: And the AI recovery time (Rattus norvegicus [15])?
Answer: 80 min

Question: And the Change (Rattus norvegicus [16])?
Answer: -19 mmHg

Question: For O=C(NC(Cc1ccc(O)cc1)C(=O)CCC(=O)N1CCC[C@H]1C(=O)O)c1ccccc1 (some centres undefined), which AI recovery time (Rattus norvegicus [1]) is on record?
Answer: 34 min

Question: What about the AI recovery time (Rattus norvegicus [2]) of the same compound?
Answer: 24 min

Question: What about the “Mean aortic blood pressure” value (Rattus norvegicus [3]) of the same compound?
Answer: 172 mmHg

Question: What about the Max inhibition (Rattus norvegicus [4]) of the same compound?
Answer: 82%

Question: And the Max inhibition (Rattus norvegicus [5])?
Answer: 46%

Question: What about the Change (Rattus norvegicus [6]) of the same compound?
Answer: -23 mmHg

Question: What does the source list for Cc1ccccc1C(=O)NC(Cc1ccccc1)C(=O)CCC(=O)N1CCC[C@H]1C(=O)OCc1ccccc1 (some centres undefined)?
Answer: Mean aortic blood pressure at maximum effect (Rattus norvegicus [3]): 175 mmHg; Change (Rattus norvegicus [6]): -20 mmHg

Question: Which “Mean aortic blood pressure” value (Rattus norvegicus [3]) does the source give for Cc1ccccc1C(=O)NC(Cc1ccccc1)C(=O)CCC(=O)N1CCC[C@H]1C(=O)O (some centres undefined) here?
Answer: 188 mmHg

Question: What about the Change (Rattus norvegicus [6]) of the same compound?
Answer: -15 mmHg

Question: With COC(=O)[C@@H]1CCCN1C(=O)CCC(=O)C(Cc1ccccc1)NC(=O)c1ccccc1 (some centres undefined) as the compound, how does the “Mean aortic blood pressure” value (Rattus norvegicus [3]) read?
Answer: 142 mmHg

Question: What about the Max effect (Rattus norvegicus [11]) of the same compound?
Answer: 165 mmHg

Question: What about the Change (Rattus norvegicus [14]) of the same compound?
Answer: -34 mmHg

Question: What about the Change (Rattus norvegicus [6]) of the same compound?
Answer: -11 mmHg

Question: O=C(NC(Cc1cccnc1)C(=O)CCC(=O)N1CCC[C@H]1C(=O)OCc1ccccc1)c1ccccc1 (some centres undefined) was tested. Which “Mean aortic blood pressure” value (Rattus norvegicus [3]) did it give?
Answer: 159 mmHg

Question: What about the Change (Rattus norvegicus [6]) of the same compound?
Answer: -32 mmHg

Question: Which AI recovery time (Rattus norvegicus [1]) does the source give for O=C(N[C@@H](Cc1ccccc1)C(=O)CCC(=O)N1CCC[C@H]1C(=O)O)c1ccccc1 here?
Answer: 34 min

Question: What about the AI recovery time (Rattus norvegicus [2]) of the same compound?
Answer: 49 min

Question: And the “Mean aortic blood pressure” value (Rattus norvegicus [3])?
Answer: 178 mmHg

Question: And the Max inhibition (Rattus norvegicus [4])?
Answer: 57%

Question: And the Max inhibition (Rattus norvegicus [5])?
Answer: 48%

Question: What about the Change (Rattus norvegicus [6]) of the same compound?
Answer: -12 mmHg

Question: How did the “Mean aortic blood pressure” value (Rattus norvegicus [3]) turn out when O=C(NC(Cc1ccccc1)C(=O)CCC(=O)N1CC(O)C[C@H]1C(=O)O)c1ccccc1 (some centres undefined) was run?
Answer: 168 mmHg

Question: And the Change (Rattus norvegicus [6])?
Answer: -20 mmHg

Question: What does the source list for O=C(NC(Cc1ccccc1)C(=O)CCC(=O)N1CCC[C@H]1C(=O)O)OCc1ccccc1 (some centres undefined)?
Answer: Mean aortic blood pressure at maximum effect (Rattus norvegicus [3]): 175 mmHg; Change (Rattus norvegicus [6]): -22 mmHg

Question: How did the “Mean aortic blood pressure” value (Rattus norvegicus [3]) turn out when O=C(NC(Cc1cccnc1)C(=O)CCC(=O)N1CCC[C@H]1C(=O)O)c1ccccc1 (some centres undefined) was run?
Answer: 184 mmHg

Question: And the Change (Rattus norvegicus [6])?
Answer: -20 mmHg

Question: What does the source list for O=C(NC(Cc1ccc(OCc2ccccc2)cc1)C(=O)CCC(=O)N1CCC[C@H]1C(=O)O)c1ccccc1 (some centres undefined)?
Answer: Mean aortic blood pressure at maximum effect (Rattus norvegicus [3]): 195 mmHg; Change (Rattus norvegicus [6]): -5 mmHg

Question: O=C(CCC(=O)N1CCC[C@H]1C(=O)O)C(Cc1ccccc1)NC(=O)C1CCCO1 (some centres undefined) was tested. Which AI recovery time (Rattus norvegicus [2]) did it give?
Answer: 10 min

Question: What about the “Mean aortic blood pressure” value (Rattus norvegicus [3]) of the same compound?
Answer: 163 mmHg

Question: And the Max inhibition (Rattus norvegicus [4])?
Answer: 64%

Question: And the Max inhibition (Rattus norvegicus [5])?
Answer: 24%

Question: What about the Change (Rattus norvegicus [6]) of the same compound?
Answer: -23 mmHg

Question: Which IC50 [17] does the source give for O=C(NC(Cc1ccccc1)C(=O)CCC(=O)N1CCCC1)c1ccccc1 (centres undefined) here?
Answer: Not Active
